This is an account of results in patent US9394338B2, “Glutathione analogs and uses thereof” (REGENTS OF THE UNIVERSITY OF MINNESOTA, priority 2011, dated 2016).

In one data set the test system is C57BL/6 mice. In words: Short-term toxicity / dose determination study. It counts as in vivo. The note with it: i.p. 3×/week for two weeks, highest dose 2000 mg/Kg. The procedure: Dose Determination Study: Ψ-GSH was injected intraperitoneally and orally in wild type C57BL/6 mice (6-8 week old, 4/group) three times a week for two weeks. The doses of Ψ-GSH employed ranged from 100 mg/kg to 2000 mg/kg. Body weight (twice a week), complete blood count (CBC) analysis and liver, kidney and lung histology was considered to be indicative of toxicity from the drug treatment. Histological sections of tissue were analyzed by a board-certified pathologist at the Masonic Cancer Center-Comparative Pathology Shared Resource, University of Minnesota.

A short description of data set [1]: Non-protein thiols in plasma and brain (DTNB). It counts as in vivo, C57BL/6 mice. How it is done: Detection of Non-Protein Thiols in Plasma and Brain. Wild type C57BL/6 mice at the age of six to eight weeks (4 per group) were treated with Ψ-GSH i.p and orally. Mice were euthanized by overdose of ketamine and xylazine at the desired time-points from the administration of the drug (0, 0.5, 1, 2 and 4 hours after drug administration). Brain and plasma samples were collected. Brains were perfused with ice-cold 0.9% NaCl, and cut sagittally into left and right hemispheres. The right hemisphere was fixed in Zamboni's fixative as described under Immunohistochemistry. The left hemispehere was immediately frozen in liquid nitrogen and utilized in further biochemical analysis. Brain tissue was homogenized in ice-cold buffer (50 mM phosphate, pH 7.0, containing 1 mM EDTA containing protease inhibitors) containing 5% sulfosalicylic acid. After homogenization, samples were centrifuged at 8000×g for 10 min at 4° C. The clear supernatant was transferred to a new tube and used for analysis of free thiol concentration.
Blood was collected in heparin-coated tubes (Fisher, Pittsburgh, Pa.) and immediately centrifuged at 5000×g for 10 min at 4° C. […]
Assay Conditions: 150 μl of Tris.HCl, pH 8.9 (Trizma base, 0.2 M; EDTA 0.02 M)+20 μl of DTNB (1 mg/mL in methanol)+50 μl of supernatant from TCA precipitation. The changes in absorbance were measured at 412 nm after […] incubation in dark at room temperature.

The subject of data set [2] is APP/PS1 mice. Description: Amyloid-β1-42 ELISA of brain homogenate. It counts as in vivo. How it is done:
(§1) Efficacy Study Design. To determine the effect of intraperitoneal and oral Ψ-GSH treatment, the study was divided in four groups (10 mice/group). 1. APP/PS1 mice-vehicle control, 2. APP/PS1 mice-Ψ-GSH i.p. 500 mg/kg, 3. APP/PS1 mice-Ψ-GSH oral 500 mg/kg, 4. Non-transgenic wild type mice-vehicle control. All the animals in the above-said groups were treated with saline or Ψ-GSH three times a week for 12 weeks, starting at the age of three to four months. Eleven weeks after the start of the treatment, the animals were tested in the Morris water maze, and twelve weeks after the start of the treatment, the animals were sacrificed for histopathological analysis.
Amyloid-β1-42 ELISA. Total Aβ^1-42 in the brain was quantified by sandwich ELISA (Invitrogen, Carlsbad, Calif.) according to the manufacturer's instructions. Wild type and transgenic Alzheimer's mice brains were Dounce homogenized in phosphate buffered saline (PBS), pH 7.2, containing a mixture of protease inhibitors. Brain homogenates were centrifuged and supernatants were assayed for soluble Aβ^1-42 per manufacturers' protocols. […] The concentration of both PBS soluble and insoluble (guanidine soluble) Aβ^1-42 was calculated from a standard curve of human Aβ^1-42 and was normalized to the weight of the tissue employed.
(An ELISA detects its analyte on a solid surface through an enzyme-linked reagent.)

Data set [3] has as its system APP/PS1 mice. In words: Brain lipid peroxidation (TBARS) assay. The data set is classed as in vivo. How it is done:
as §1
Lipid Peroxidation Assay. The levels of lipid peroxidation were quantified by the thiobarbituric acid-reactive substances (TBARS) assay. Brain homogenate was treated with 2 ml of (1:1:1) ratio (TBA) thiobarbituric acid -(TCA) trichloroacetic acid -(HCl) chloridic acid reagent (TBA 0.37%, 0.25 N HCL and 15% TCA) and placed in water bath for 15 min, cooled and centrifuged and then clear supernatant was measured at 535 nm against reference blank. Protein was determined by the BCA protein assay kit. TBARS were normalized to the protein content in each sample and then expressed as percentage of the corresponding values in non-transgenic saline controls.

With `N[C@@H](CNC(=O)N[C@@H](CS)C(=O)NCC(=O)O)C(=O)O` [Ψ-GSH, γ-Gla-Cys-Gly-OH], in the data set with C57BL/6 mice, the “ALT, AST, ALP, blood urea nitrogen (BUN) and creatinine levels” value was “Unaffected”; the “Body weights and CBC” value was “insignificantly affected”; the “Histopathology of lung, liver and kidney tissue vs saline-treated mice” value was “no significant difference”. Also, the plasma thiol level result in data set [1] (oral 500 mg/Kg, over 2 hours) is recorded as “reducing to basal levels”. The plasma thiol level result in data set [1] (single i.p. 500 mg/Kg, at 4 hours) is reported as “dropped to basal levels”. Further, the “insoluble Aβ1-42 in brain” value with APP/PS1 mice [2] (i.p.) is recorded as 45.4±6.01 % of vehicle-treated APP/PS1 mice. The “insoluble Aβ1-42 concentration in brain” value in the data set with APP/PS1 mice [2] (oral) is reported as 90.80±6.72 % of vehicle treated APP/PS1 mice. Further, the “TBARS levels in brain (WT saline = 100%)” value with APP/PS1 mice [3] (i.p.) is on record as 95.3±5.51%. In addition, in the data set with APP/PS1 mice [3] (oral), the “levels of lipid peroxidation” value is on record as “unaffected”.
